Laboratory results published in patent US20240408055A1 (priority 2021, published 2024).
pEC50: −log10 of the molar value. In brackets after ≈: the same amount, converted by molar mass.

Assays:
[1] = tested on: SARS-CoV-2 pseudovirus South Africa B.1.351; assay: microbe, parasite or virus in culture; type: cell-based
[2] = tested on: SARS-CoV-2 pseudovirus California B.1.429; assay: microbe, parasite or virus in culture; type: cell-based
[3] = tested on: SARS-CoV-2 pseudovirus Nigeria B.1.525; assay: microbe, parasite or virus in culture; type: cell-based
[4] = tested on: SARS-CoV-2 pseudovirus Wuhan D614; assay: microbe, parasite or virus in culture; type: cell-based
TMPRSS2 = target: T1, TMPRSS2 (Homo sapiens, UniProt O15393); assay: TMPRSS2 Fluorogenic Assay Kit; type: biochemical; conditions: TMPRSS2 150 ng/group, 50 μL reaction; read-out: half maximal effective concentration (EC50) against TMPRSS2 protease activity
T1 construct: purchased BPS BIOSCIENCE 78083
Procedure: In the biochemical experiments, TMPRSS2 Fluorescence Assay Kit (TMPRSS2 Fluorogenic Assay Kit, BPS BIOSCIENCE, 78083) was used in the test method. Inhibitory activity was measured by sequential kinetic analysis according to the manufacturer's manual, the inhibition activity was measured by using continuous kinetic analysis, the samples containing TMPRSS2 were reacted with a fluorescent substrate in a mixing, and a fluorescence (λex=383 nm, λem=455 nm) readings were used. Camostat protease inhibitor was used as a positive control. The experiment was performed in a 50 μL reaction system, the single reaction dose of TMPRSS2 was 150 ng/group, and 10 μM Camostat protease inhibitor was used as a positive control. The effect of Anisomelic acid on the inhibition of TMPRSS2 protease activity was examined by tested various concentrations of Anisomelic acid (0.5, 1, 2.5, 5, 10, 20 and 30 μM). A significant inhibition of Anisomelic acid against TMPRSS2 protease activity was found in a dose-dependent manner.

[5] = tested on: SARS-CoV-2 pseudovirus Uganda A23.1; assay: microbe, parasite or virus in culture; type: cell-based
[6] = tested on: SARS-CoV-2 pseudovirus Brazil P.1; assay: microbe, parasite or virus in culture; type: cell-based
[7] = target: T2, SARS-CoV-2 main protease (Mpro) (Severe acute respiratory syndrome coronavirus 2, UniProt P0DTD1); type: biochemical; conditions: read-out: half maximal effective concentration (EC50) against Mpro activity
T2 construct: a recombinant 2019-nCoV 3CL protease protein (Elabscience bio Inc) was used; purchased Elabscience bio Inc

SARS-CoV-2 = conditions: mouse, in vivo
Cathepsin B = target: T3, Cathepsin B (Homo sapiens, UniProt P07858); assay: Cathepsin B Inhibitor Screening Assay Kit (fluorescence); type: biochemical; conditions: Cathepsin B 0.4 ng/group, 50 μL reaction; read-out: half maximal effective concentration (EC50) against Cathepsin B protease activity
T3 construct: purchased BPS BIOSCIENCE 79590
Procedure: In the biochemical test, the Cathepsin B Fluorescence Assay Kit (Cathepsin B Inhibitor Screening Assay Kit, BPS BIOSCIENCE, 79590) was used in the test method. According to the manufacturer's manual, the inhibition activity was measured through continuous kinetic analysis, the samples containing Cathepsin B were reacted with a fluorescent substrate in the mixing, and the measured fluorescence (λex=360 nm, λem=460 nm) readings were used. The E64 protease inhibitor was used as a positive control. The experiment was conducted in a 50 μL reaction system, with a single reaction dose of Cathepsin B at 0.4 ng/group, the E64 protease inhibitor were used as a positive control. The inhibitory impact of various concentrations of Anisomelic acid (0.5, 1, 2.5, 5, 10, 20, and 30 μM) against Cathepsin B protease activity was examined. The significant inhibition of Anisomelic acid against Cathepsin B protease activity was found in a dose-dependent manner.

[8] = tested on: SARS-CoV-2 pseudovirus India B.1.617.1; assay: microbe, parasite or virus in culture; type: cell-based
Cathepsin L = Cathepsin L (Homo sapiens, UniProt P07711); assay: Cathepsin L Inhibitor Screening Assay Kit (fluorescence); type: biochemical; conditions: Cathepsin L 0.4 ng/group, 50 μL reaction; read-out: half maximal effective concentration (EC50) against Cathepsin L protease activity
Procedure: The Cathepsin L Fluorescence Assay Kit (Cathepsin L Inhibitor Screening Assay Kit, BPS BIOSCIENCE, 79591) was used in the biochemical test method. According to the manufacturer's manual, the inhibition activity was measured through continuous kinetic analysis, the samples containing Cathepsin L were reacted with a fluorescent substrate in mixing, and the measured fluorescence (λex=360 nm, λem=460 nm) readings were used. The E64 protease inhibitor was used as a positive control. The experiment was conducted in a 50 μL reaction system, with a single reaction dose of Cathepsin L at 0.4 ng/group, the E64 was used as the positive control of inhibition. The inhibitory impact of various concentrations of Anisomelic acid (0.5, 1, 2.5, 5, 10, 20, and 30 μM) against Cathepsin L protease activity was examined. As shown in the right graph of FIG. 5B, the significant inhibition of Anisomelic acid against Cathepsin L protease activity was found in a dose-dependent manner.

[9] = tested on: SARS-CoV-2 pseudovirus New York B.1.526; assay: microbe, parasite or virus in culture; type: cell-based
[10] = Severe acute respiratory syndrome-related coronavirus, Huh-7, read-out: IC50 inhibiting infection

Chain of Cathepsin L (P07711 114-333): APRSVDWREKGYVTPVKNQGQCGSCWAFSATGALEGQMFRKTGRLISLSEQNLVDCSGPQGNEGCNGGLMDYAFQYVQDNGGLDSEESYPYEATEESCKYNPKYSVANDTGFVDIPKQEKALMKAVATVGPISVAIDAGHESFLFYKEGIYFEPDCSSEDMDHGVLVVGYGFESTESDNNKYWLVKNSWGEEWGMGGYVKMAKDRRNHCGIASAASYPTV
T1 sequence (O15393 whole entry): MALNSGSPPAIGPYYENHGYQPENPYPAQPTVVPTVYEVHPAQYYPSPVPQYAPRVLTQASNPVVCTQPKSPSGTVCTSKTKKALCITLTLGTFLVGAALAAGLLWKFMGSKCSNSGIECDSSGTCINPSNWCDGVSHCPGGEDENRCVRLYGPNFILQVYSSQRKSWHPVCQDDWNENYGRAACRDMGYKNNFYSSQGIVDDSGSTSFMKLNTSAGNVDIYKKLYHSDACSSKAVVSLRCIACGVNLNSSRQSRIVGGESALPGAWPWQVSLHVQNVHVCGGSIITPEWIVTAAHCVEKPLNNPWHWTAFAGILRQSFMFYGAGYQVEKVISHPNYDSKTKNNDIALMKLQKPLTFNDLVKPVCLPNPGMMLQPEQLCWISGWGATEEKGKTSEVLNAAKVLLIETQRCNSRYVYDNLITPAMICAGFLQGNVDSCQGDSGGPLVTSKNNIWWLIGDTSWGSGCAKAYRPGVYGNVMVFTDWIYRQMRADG

Compound | IC50 inhibiting infection [1] [µg/mL] | IC50 inhibiting infection [2] [µg/mL] | IC50 inhibiting infection [3] [µg/mL] | IC50 inhibiting infection [4] [µg/mL] | IC50 inhibiting infection [5] [µg/mL] | IC50 inhibiting infection [6] [µg/mL] | changes in body weight of the mice (SARS-CoV-2) | IC50 inhibiting infection [8] [µg/mL] | IC50 inhibiting infection [9] [µg/mL] | further results
C=C1C(=O)OC2/C=C(/C)CC/C=C(\C(=O)O)CC/C=C(\C)CCC12 (centres unmarked) [Anisomelic acid] | 27.55 (≈ 83.4 µM) | 8.47 (≈ 25.6 µM) | 14.36 (≈ 43.5 µM) | 3.50 (≈ 10.6 µM) | 15.53 (≈ 47 µM) | 0.12 (≈ 0.363 µM) | basically similar | 10.09 (≈ 30.5 µM) | 8.86 (≈ 26.8 µM) | pEC50 (TMPRSS2): 5.19; pEC50 [7]: 5.01; changes in the titers of coronavirus infection in the lungs of mice (SARS-CoV-2): better prevention and control effects; pEC50 (Cathepsin B): 5.37; pEC50 (Cathepsin L): 5.43
C=C1C(=O)O[C@@H]2/C=C(\C)C[C@H]3C=C(CC/C=C(\C)CC[C@@H]12)C(=O)O3 [Ovatodiolide] | 15.42 (≈ 47 µM) | 12.09 (≈ 36.8 µM) | 8.24 (≈ 25.1 µM) | 4.08 (≈ 12.4 µM) | 6.72 (≈ 20.5 µM) | 7.00 (≈ 21.3 µM) | basically similar | 15.27 (≈ 46.5 µM) | 11.35 (≈ 34.6 µM) | –
CCC(CC)COC(=O)[C@H](C)N[P@](=O)(OC[C@H]1O[C@@](C#N)(c2ccc3c(N)ncnn23)[C@H](O)[C@@H]1O)Oc1ccccc1 [Remdesivir, reference compound] | – | – | – | – | – | – | basically similar | – | – | IC50 [1, 10]: 27.2 µg/mL (≈ 45.2 µM); IC50 [2, 10]: 15.9 µg/mL (≈ 26.4 µM); IC50 [3, 10]: 10.3 µg/mL (≈ 17.1 µM); IC50 [4, 10]: 2.96 µg/mL (≈ 4.91 µM); IC50 [5, 10]: 7.63 µg/mL (≈ 12.7 µM); IC50 [6, 10]: 13.8 µg/mL (≈ 22.8 µM); IC50 [8, 10]: 11.9 µg/mL (≈ 19.8 µM); IC50 [9, 10]: 15 µg/mL (≈ 24.9 µM)
